Measurements: ChEMBL document CHEMBL1201862, “PubChem BioAssay data set” (2004)
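Cultured in 96-well plates, cells were exposed to test compound for 48 hours across five concentrations. GI50: concentration for 50% inhibition of growth.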 Activity calls are given as the source filed them. Rule as the data show it: active = GI50 up to about 1.1 µM and inactive = higher.

Tests used:
Test in all cases: inhibition of tumour cell growth, NCI panel, 48 h
[1] = tested on: UACC-62
[2] = tested on: UO-31
[3] = tested on: M14
[4] = tested on: HT-29
[5] = tested on: UACC-257
[6] = tested on: SNB-19
[7] = tested on: OVCAR-3
[8] = tested on: HOP-62
[9] = tested on: EKVX
[10] = tested on: KM12
[11] = tested on: OVCAR-8
[12] = tested on: OVCAR-4
[13] = tested on: TK-10
[14] = tested on: SK-OV-3
[15] = tested on: U-251
[16] = tested on: HOP-92
[17] = tested on: SN12C
[18] = tested on: SW-620
[19] = tested on: COLO 205
[20] = tested on: A549

SMILES	GI50 [1]	GI50 [2]	GI50 [3]	GI50 [4]	GI50 [5]	GI50 [6]	GI50 [7]	GI50 [8]	GI50 [9]	GI50 [10]	GI50 [11]	GI50 [12]	GI50 [13]	GI50 [14]	GI50 [15]	GI50 [16]	GI50 [17]	GI50 [18]	GI50 [19]	GI50 [20]
Cc1c(OC(C)C(=O)O)ccc2c(-c3ccccc3)cc(=O)oc12 (stereo not given)	> 100 µM (inactive)	> 100 µM (inactive)	> 100 µM (inactive)	> 100 µM (inactive)	> 100 µM (inactive)	> 100 µM (inactive)	> 100 µM (inactive)	> 100 µM (inactive)	> 100 µM (inactive)	> 100 µM (inactive)	> 100 µM (inactive)	> 100 µM (inactive)	> 100 µM (inactive)	> 100 µM (inactive)	> 100 µM (inactive)	> 100 µM (inactive)	> 100 µM (inactive)	> 100 µM (inactive)	> 100 µM (inactive)	> 100 µM (inactive)
C=CC(=O)N1C/C(=C\c2ccc(OC)cc2)C(=O)/C(=C/c2ccc(OC)cc2)C1	1.94 µM (inactive)	1.77 µM (inactive)	2.15 µM (inactive)	0.78 µM (active)	3.64 µM (inactive)	7.18 µM (inactive)	1.97 µM (inactive)	2.55 µM (inactive)	3.35 µM (inactive)	1.93 µM (inactive)	2.88 µM (inactive)	2.36 µM (inactive)	3.66 µM (inactive)	3.48 µM (inactive)	1.97 µM (inactive)	6.03 µM (inactive)	2.49 µM (inactive)	1.46 µM (inactive)	2.99 µM (inactive)	2.47 µM (inactive)
CC(C)C(=O)Cc1ccc2ccccc2n1	> 100 µM (inactive)	> 100 µM (inactive)	> 100 µM (inactive)	> 100 µM (inactive)	> 100 µM (inactive)	> 100 µM (inactive)	> 100 µM (inactive)	> 100 µM (inactive)	83.4 µM (inactive)	> 100 µM (inactive)	> 100 µM (inactive)	> 100 µM (inactive)	> 100 µM (inactive)	> 100 µM (inactive)	> 100 µM (inactive)	> 100 µM (inactive)	> 100 µM (inactive)	> 100 µM (inactive)	> 100 µM (inactive)	> 100 µM (inactive)
Nc1nc(O)c2[nH]cnc2[n+]1[O-]	> 100 µM (inactive)	> 100 µM (inactive)	> 100 µM (inactive)	> 100 µM (inactive)	> 100 µM (inactive)	> 100 µM (inactive)	> 100 µM (inactive)	> 100 µM (inactive)	> 100 µM (inactive)	> 100 µM (inactive)	> 100 µM (inactive)	> 100 µM (inactive)	53.3 µM (inactive)	> 100 µM (inactive)	> 100 µM (inactive)	> 100 µM (inactive)	40.5 µM (inactive)	> 100 µM (inactive)	> 100 µM (inactive)	> 100 µM (inactive)
ON(Cc1ccccc1)C(=S)c1ccccc1	2.43 µM (inactive)	4.03 µM (inactive)	5.21 µM (inactive)	2.88 µM (inactive)	4.72 µM (inactive)	17.7 µM (inactive)	2.72 µM (inactive)	4.85 µM (inactive)	7.23 µM (inactive)	4.76 µM (inactive)	3.46 µM (inactive)	2.61 µM (inactive)	21.8 µM (inactive)	14.7 µM (inactive)	3.64 µM (inactive)	50.7 µM (inactive)	8.41 µM (inactive)	4.23 µM (inactive)	1.45 µM (inactive)	4.35 µM (inactive)
O=c1cccc(Cl)[nH]1	> 100 µM (inactive)	> 100 µM (inactive)	> 100 µM (inactive)	> 100 µM (inactive)	> 100 µM (inactive)	> 100 µM (inactive)	> 100 µM (inactive)	> 100 µM (inactive)	> 100 µM (inactive)	> 100 µM (inactive)	> 100 µM (inactive)	> 100 µM (inactive)	> 100 µM (inactive)	> 100 µM (inactive)	> 100 µM (inactive)	> 100 µM (inactive)	> 100 µM (inactive)	> 100 µM (inactive)	> 100 µM (inactive)	> 100 µM (inactive)
COc1ccc(NC(=O)C(=O)NNC(=O)c2sc(NNC(C)=O)nc2C)c([N+](=O)[O-])c1	82.6 µM (inactive)	> 100 µM (inactive)	> 100 µM (inactive)	> 100 µM (inactive)	81.7 µM (inactive)	> 100 µM (inactive)	33.5 µM (inactive)	> 100 µM (inactive)	> 100 µM (inactive)	> 100 µM (inactive)	> 100 µM (inactive)	51.5 µM (inactive)	> 100 µM (inactive)	> 100 µM (inactive)	> 100 µM (inactive)	> 100 µM (inactive)	> 100 µM (inactive)	35.6 µM (inactive)	> 100 µM (inactive)	> 100 µM (inactive)
COc1nc(N=P(c2ccccc2)(c2ccccc2)c2ccccc2)cc(=O)n1C	> 100 µM (inactive)	> 100 µM (inactive)	> 100 µM (inactive)	> 100 µM (inactive)	> 100 µM (inactive)	> 100 µM (inactive)	> 100 µM (inactive)	> 100 µM (inactive)	> 100 µM (inactive)	> 100 µM (inactive)	> 100 µM (inactive)	> 100 µM (inactive)	> 100 µM (inactive)	> 100 µM (inactive)	> 100 µM (inactive)	> 100 µM (inactive)	> 100 µM (inactive)	> 100 µM (inactive)	> 100 µM (inactive)	> 100 µM (inactive)
Cn1ncc2ccc3[nH]c4ccccc4c(=O)c3c21	16.9 µM (inactive)	15 µM (inactive)	39.2 µM (inactive)	35 µM (inactive)	31 µM (inactive)	38.3 µM (inactive)	37.3 µM (inactive)	26.5 µM (inactive)	42 µM (inactive)	38.3 µM (inactive)	28.1 µM (inactive)	23.9 µM (inactive)	21.1 µM (inactive)	50.7 µM (inactive)	15.7 µM (inactive)	37.8 µM (inactive)	28.2 µM (inactive)	26.2 µM (inactive)	26.4 µM (inactive)	20.2 µM (inactive)
COc1cc(C(C)c2cc3c(cc2OCCOCCOc2cc4c(cc2C(C)c2cc(OC)c(OC)c(OC)c2)OCO4)OCO3)cc(OC)c1OC (stereo not given)	> 10 µM (inactive)	29.7 µM (inactive)	> 10 µM (inactive)	> 10 µM (inactive)	> 10 µM (inactive)	> 10 µM (inactive)	> 10 µM (inactive)	> 10 µM (inactive)	> 10 µM (inactive)	> 10 µM (inactive)	> 10 µM (inactive)	> 10 µM (inactive)	> 10 µM (inactive)	> 10 µM (inactive)	> 10 µM (inactive)	16.4 µM (inactive)	> 10 µM (inactive)	> 10 µM (inactive)	> 10 µM (inactive)	> 10 µM (inactive)
Brc1cc(CCOC2CCCCO2)c(-c2sccc2CCOC2CCCCO2)s1 (stereo not given)	58.5 µM (inactive)	14 µM (inactive)	31.8 µM (inactive)	61.8 µM (inactive)	35.5 µM (inactive)	> 100 µM (inactive)	71.4 µM (inactive)	63.2 µM (inactive)	47.6 µM (inactive)	27 µM (inactive)	45.5 µM (inactive)	48 µM (inactive)	> 59.6 µM (inactive)	> 69.2 µM (inactive)	57.8 µM (inactive)	> 65.2 µM (inactive)	> 100 µM (inactive)	> 65.8 µM (inactive)	43.4 µM (inactive)	24.8 µM (inactive)
CC(C)CCNc1ncnc2[nH]ncc12	> 100 µM (inactive)	> 100 µM (inactive)	> 100 µM (inactive)	> 100 µM (inactive)	32 µM (inactive)	> 100 µM (inactive)	> 100 µM (inactive)	96.6 µM (inactive)	26.4 µM (inactive)	48.6 µM (inactive)	> 100 µM (inactive)	> 100 µM (inactive)	> 100 µM (inactive)	> 100 µM (inactive)	> 100 µM (inactive)	34.2 µM (inactive)	> 100 µM (inactive)	> 100 µM (inactive)	63.4 µM (inactive)	> 100 µM (inactive)
C=CCNC(=O)N(CCC)CCCC(NC(C)=O)C(=O)NCc1ccccc1 (stereo not given)	> 100 µM (inactive)	> 100 µM (inactive)	> 100 µM (inactive)	> 100 µM (inactive)	> 100 µM (inactive)	> 100 µM (inactive)	> 100 µM (inactive)	> 100 µM (inactive)	> 100 µM (inactive)	> 100 µM (inactive)	> 100 µM (inactive)	> 100 µM (inactive)	> 100 µM (inactive)	> 100 µM (inactive)	> 100 µM (inactive)	> 100 µM (inactive)	> 100 µM (inactive)	> 100 µM (inactive)	> 100 µM (inactive)	> 100 µM (inactive)
CC(C)C1=C(O)C(=O)C2=C(C1=O)C(OC=O)C(O)C1C(C)(C)CCCC21C (stereo not given)	6.19 µM (inactive)	5.82 µM (inactive)	11.9 µM (inactive)	11.2 µM (inactive)	9.1 µM (inactive)	13.4 µM (inactive)	12.1 µM (inactive)	37.6 µM (inactive)	10.1 µM (inactive)	12 µM (inactive)	7.29 µM (inactive)	10.2 µM (inactive)	13.4 µM (inactive)	13.4 µM (inactive)	4.28 µM (inactive)	7.46 µM (inactive)	10.1 µM (inactive)	3.1 µM (inactive)	3.54 µM (inactive)	14.7 µM (inactive)
